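The compound was tested at five concentrations on cells cultured in 96-well plates, with a 48-hour exposure period. The concentration for 50% growth inhibition is given as GI50.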 The source made the active and inactive calls. No stated cut-off is given here; in the data, active = GI50 up to about 1.1 µM and inactive = higher.
How the values were obtained:
Experiment in all cases: NCI tumour cell line growth inhibition, 48 h
LOX IMVI = system: LOX IMVI
A498 = system: A498
SF-268 = system: SF-268
TK-10 = system: TK-10
SW-620 = system: SW-620
OVCAR-3 = system: OVCAR-3
HCT-116 = system: HCT-116
M14 = system: M14
CCRF-CEM = system: CCRF-CEM
SNB-19 = system: SNB-19
COLO 205 = system: COLO 205
CAKI-1 = system: CAKI-1
NCI-H460 = system: NCI-H460
SNB-75 = system: SNB-75
SK-MEL-5 = system: SK-MEL-5
UO-31 = system: UO-31
OVCAR-8 = system: OVCAR-8
NCI-H226 = system: NCI-H226
SR = system: SR

Measured: GI50

COc1ccccc1NS(=O)(=O)c1cc(C(C)(C)C)ccc1OCCOc1ccc(C(C)(C)C)cc1S(=O)(=O)Nc1ccccc1OC
inactive: LOX IMVI > 100 µM | A498 > 100 µM | SF-268 > 100 µM | TK-10 > 100 µM | SW-620 > 100 µM | OVCAR-3 > 100 µM | HCT-116 > 100 µM | M14 > 100 µM | CCRF-CEM > 100 µM | SNB-19 > 100 µM | COLO 205 > 100 µM | CAKI-1 > 100 µM | NCI-H460 > 100 µM | SNB-75 > 100 µM | SK-MEL-5 > 100 µM | UO-31 > 100 µM | OVCAR-8 > 100 µM | NCI-H226 > 100 µM

C[C@]12CCC(=O)C=C1CC[C@@H]1C2CC[C@]2(C)Nc3[nH]ncc3CC12 (stereo partly specified)
inactive: A498 > 100 µM | TK-10 > 100 µM | SW-620 > 100 µM | OVCAR-3 > 100 µM | HCT-116 > 100 µM | M14 > 100 µM | CCRF-CEM > 100 µM | CAKI-1 > 100 µM | NCI-H460 > 100 µM | SNB-75 30.3 µM | SK-MEL-5 > 100 µM | UO-31 > 100 µM | OVCAR-8 > 100 µM | NCI-H226 60.3 µM

C/C(CC(=O)Nc1cc(Cl)c(Cl)cc1Cl)=N\NC(N)=O
inactive: LOX IMVI > 100 µM | SF-268 > 100 µM | TK-10 > 100 µM | SW-620 > 100 µM | OVCAR-3 > 100 µM | HCT-116 > 100 µM | M14 > 100 µM | CCRF-CEM > 100 µM | COLO 205 > 100 µM | SNB-75 66.5 µM | SK-MEL-5 > 100 µM | UO-31 > 100 µM | OVCAR-8 > 100 µM | NCI-H226 > 100 µM

O=C(Nc1ccccc1-c1n[nH]c(S)nc1=O)C(F)(F)F
inactive: LOX IMVI > 100 µM | SR > 100 µM | SF-268 > 100 µM | TK-10 > 100 µM | SW-620 > 100 µM | OVCAR-3 > 100 µM | HCT-116 > 100 µM | M14 > 100 µM | CCRF-CEM > 100 µM | SNB-19 > 100 µM | COLO 205 > 100 µM | CAKI-1 > 100 µM | NCI-H460 > 100 µM | SNB-75 > 100 µM | SK-MEL-5 > 100 µM | UO-31 > 100 µM | OVCAR-8 > 100 µM | NCI-H226 > 100 µM

CC1(C)OC2C(CO)OC(N/C(=N/C#N)Oc3ccccc3)C2O1 (stereo unspecified)
inactive: LOX IMVI > 100 µM | SR > 100 µM | SF-268 > 100 µM | TK-10 > 100 µM | SW-620 > 100 µM | OVCAR-3 > 100 µM | HCT-116 > 100 µM | M14 > 100 µM | CCRF-CEM > 100 µM | SNB-19 > 100 µM | COLO 205 > 100 µM | NCI-H460 > 100 µM | SNB-75 75.9 µM | SK-MEL-5 > 100 µM | UO-31 > 100 µM | OVCAR-8 > 100 µM | NCI-H226 > 100 µM

O=[N+]([O-])c1ccc(/C=C/c2ccc(/N=N/c3ccc(/C=C/c4ccc([N+](=O)[O-])cc4S(=O)(=O)O)c(S(=O)(=O)O)c3)cc2S(=O)(=O)O)c(S(=O)(=O)O)c1
inactive: LOX IMVI > 100 µM | A498 > 100 µM | SF-268 > 100 µM | SW-620 > 100 µM | OVCAR-3 > 87.5 µM | HCT-116 > 100 µM | CCRF-CEM > 100 µM | COLO 205 > 100 µM | NCI-H460 > 100 µM | SNB-75 61.8 µM | SK-MEL-5 > 100 µM | UO-31 > 100 µM | OVCAR-8 > 100 µM | NCI-H226 > 100 µM

CC1CCC2(CC1)NN=c1s/c(=C\c3ccc(O)cc3)c(=O)n1N2 (stereo unspecified)
inactive: LOX IMVI 81.8 µM | SF-268 > 100 µM | TK-10 > 100 µM | SW-620 > 100 µM | OVCAR-3 > 100 µM | HCT-116 > 100 µM | M14 > 100 µM | CCRF-CEM > 100 µM | SNB-19 > 100 µM | COLO 205 > 100 µM | NCI-H460 > 100 µM | SNB-75 63.5 µM | SK-MEL-5 > 100 µM | OVCAR-8 > 100 µM | NCI-H226 > 100 µM

CN1CCCC2[C@@H]3CCC4c5nonc5CC[C@]4(C)C3CC[C@@]21C (stereo partly specified)
inactive: SR > 100 µM | TK-10 > 100 µM | SW-620 > 100 µM | HCT-116 > 100 µM | SNB-19 > 100 µM | COLO 205 > 100 µM | CAKI-1 > 100 µM | NCI-H460 > 100 µM | SNB-75 23.4 µM | SK-MEL-5 42.5 µM | UO-31 > 100 µM | OVCAR-8 > 100 µM | NCI-H226 > 100 µM

O=c1[nH]c(-c2ccc([N+](=O)[O-])cc2)nc2ccc(Cl)cc12
inactive: SF-268 > 100 µM | TK-10 51.8 µM | SW-620 > 100 µM | HCT-116 > 100 µM | SNB-19 66.2 µM | COLO 205 > 100 µM | SNB-75 57.5 µM | SK-MEL-5 > 100 µM | UO-31 > 100 µM | OVCAR-8 > 100 µM | NCI-H226 > 10 µM

Cn1c(=O)c2ccccc2c2nc3ccccc3nc21
inactive: SR > 100 µM | SF-268 > 100 µM | TK-10 45.5 µM | SW-620 > 100 µM | HCT-116 > 100 µM | SNB-19 > 100 µM | COLO 205 > 100 µM | SNB-75 25.2 µM | SK-MEL-5 > 100 µM | UO-31 > 100 µM | OVCAR-8 > 100 µM | NCI-H226 > 100 µM

CC(C)(C)c1ccc(OCCOCCOc2ccc(C(C)(C)C)cc2S(N)(=O)=O)c(S(N)(=O)=O)c1
inactive: LOX IMVI 23.7 µM | A498 20.3 µM | SF-268 97.3 µM | TK-10 > 100 µM | SW-620 > 100 µM | OVCAR-3 > 100 µM | HCT-116 17.4 µM | M14 61.4 µM | CCRF-CEM > 100 µM | SNB-19 > 100 µM | COLO 205 > 100 µM | CAKI-1 > 100 µM | NCI-H460 34.9 µM | SNB-75 > 100 µM | SK-MEL-5 8.13 µM | UO-31 5.85 µM | OVCAR-8 > 100 µM | NCI-H226 40.7 µM

O=NN1C(c2ccccc2)C2CCCC(C2=O)C1c1ccccc1 (stereo unspecified)
inactive: LOX IMVI 22.9 µM | A498 34 µM | SF-268 49.8 µM | SW-620 43.9 µM | OVCAR-3 4.82 µM | HCT-116 25.5 µM | CCRF-CEM 28.3 µM | SNB-19 42.6 µM | COLO 205 17.5 µM | CAKI-1 41.4 µM | NCI-H460 22 µM | SNB-75 22.8 µM | SK-MEL-5 18.7 µM | UO-31 22.9 µM | OVCAR-8 37.7 µM | NCI-H226 25.1 µM

Nc1nc2[nH]c(=O)cnc2c(=O)[nH]1 [ISOXANTHOPTERIN]
inactive: LOX IMVI > 125 µM | A498 > 125 µM | SF-268 > 125 µM | SW-620 > 125 µM | OVCAR-3 > 125 µM | HCT-116 > 125 µM | CCRF-CEM > 125 µM | SNB-19 > 125 µM | COLO 205 > 125 µM | CAKI-1 > 125 µM | NCI-H460 > 125 µM | SNB-75 > 125 µM | SK-MEL-5 > 125 µM | UO-31 > 125 µM | OVCAR-8 > 125 µM | NCI-H226 > 125 µM
